Laboratory results taken from patent US20250049660A1, “ENOL ETHER PROPERFUME” (FIRMENICH SA, priority 2021, published 2025).

Experiment: Acid-catalyzed hydrolysis of enol ethers in THF/1 M HCl
Format: physicochemical
Settings: THF/1M HCl (80:20 v/v), room temperature; for Hydrolysis of enol ethers, percent remaining, initial: initial (time zero)
Description: The acid-catalyzed hydrolysis of Compounds 1, 2, 3 and 25 were measured and compared to the hydrolysis of enol ethers report in WO2019243501. Each enol ether was dissolved in a 4:1 THF/1 M HCl mixture and the percent remaining over time measured relative to an internal standard.
Into a 15 mL vial were added 125 mg of enol ether, 60 mg of hexadecane and 10 mL of THE (purged with N2 and containing 2500 ppm of BHT). After mixing, 2 mL of this solution were removed with a volumetric pipet and used to obtain the time zero measurement. 2 mL of 1 M HCl were mixed with the remaining 8 mL of the THF solution. This mixture was divided into 5 mL vials (1 mL per vial). The vials were gently topped with nitrogen and fitted with screw caps around which parafilm was wrapped. The vials were stored at room temperature until analyzed. For analyses, 2 mL of ethyl acetate was added to a vial and mixed. After phase separation, the top phase was collected and washed with saturated sodium carbonate (1 mL). Samples of the organic phase were analyzed by GC-FID. For the time zero sample, 0.5 mL of deionized water was added to the 2 mL taken from the original THE solution. 1 mL of this solution was added to a 5 mL vial and diluted with 2 mL of ethyl acetate and mixed. The top phase was collected and washed with saturated sodium carbonate (1 mL). The top phase then was analyzed by GC-FID. The percent of enol ether remaining was determined by dividing the peak area ratio of the enol ether to internal standard by the ratio measured at time zero.

Compound | Hydrolysis of enol ethers, percent remaining, 1 d [%] | Hydrolysis of enol ethers, percent remaining, 2 d [%] | Hydrolysis of enol ethers, percent remaining, 3 d [%] | Hydrolysis of enol ethers, percent remaining, 7 d [%] | Hydrolysis of enol ethers, percent remaining, initial [%] | Hydrolysis of enol ethers, percent remaining, 5 h [%]
CC/C=C\CCOC=Cc1ccc(OC)cc1 [1-(2-(((Z)-hex-3-en-1-yl)oxy)vinyl)-4-methoxybenzene, reference compound] | 89.1 | 80.2 | 72.4 | 52.5 | 100 | 
CCCCCC(CC)OC=Cc1ccccc1 (stereo not shown) [(2-(octan-3-yloxy)vinyl)benzene, reference compound] | 84.9 | 72.0 | 61.7 | 33.6 | 100 | 
C(=Cc1ccccc1)OCCc1ccccc1 [(2-phenethoxyvinyl)benzene, reference compound] | 95 | 90 | 83.7 | 66.4 | 100 | 
C=CCCCCCCCC=COCCc1ccccc1 [Compound 3, (2-(undeca-1,10-dien-1-yloxy)ethyl)benzene] | 0 | 0 | 0 | 0 | 100 | 19.9

Now from value to compound:

Hydrolysis of enol ethers, percent remaining, 1 d [%] | Hydrolysis of enol ethers, percent remaining, 2 d [%] | Hydrolysis of enol ethers, percent remaining, 3 d [%] | Hydrolysis of enol ethers, percent remaining, 7 d [%] | Hydrolysis of enol ethers, percent remaining, initial [%] | Hydrolysis of enol ethers, percent remaining, 5 h [%] | Compound
 |  | 79.5 | 57.3 | 100 |  | CC/C=C\CCOC=Cc1ccccc1 [(2-(((Z)-hex-3-en-1-yl)oxy)vinyl)benzene, reference compound]
0 | 0 | 0 | 0 | 100 | 12.8 | CCCCCCCCCCC=COCCc1ccccc1 [Compound 1, (2-(dodec-1-en-1-yloxy)ethyl)benzene]
0 | 0 | 0 | 0 | 100 | 16.3 | CCCCCCCCCCCC=COCCc1ccccc1 [Compound 2, (2-(tridec-1-en-1-yloxy)ethyl)benzene]
4.6 | 0 | 0 | 0 | 100 | 35.6 | CCCCCCCCCC(C)C=COCCc1ccccc1 (stereo not shown) [Compound 25, (2-((3-methyldodec-1-en-1-yl)oxy)ethyl)benzene]
 |  |  |  | 100 | 29.8 | CC/C=C\CCOC=CC(C)CCCCCCCCC (stereo not shown) [Compound 27, 1-(((Z)-hex-3-en-1-yl)oxy)-3-methyldodec-1-ene]
 |  |  |  | 100 | 3.7 | CCCCCCCCCC(C)C=COC(CC)CCCCC (stereo not shown) [Compound 29, 3-methyl-1-(octan-3-yloxy)dodec-1-ene]
